Source: publication PMC10586451, “Design, Synthesis, Pharmacological Activities, Structure–Activity Relationship, and In Silico Studies of Novel 5-Substituted-2-(morpholinoimino)-thiazolidin-4-ones” (ACS Omega, 2023)
“And” between values parts separate entries of the source, which are not always exact repeats. Equal entries are not always repeated. Where two headings read alike, the source gives them in different places.

Assays:
[1] = CUPRAC assay (Cu(II) reducing power); conditions: concentration at 0.500 absorbance; mean ± SEM
Method: (§1) DMSO solutions of four different concentrations (12.5, 25, 50, and 100 μM) of the synthesized compound 1–26 were prepared. DMSO was used as a control, while BHA and α-TOC were used as antioxidant standards.

[2] = DPPH radical scavenging assay; conditions: mean ± SEM of three parallel measurements
Method: as §1

[3] = β-carotene-linoleic acid assay (antioxidant); conditions: mean ± SEM of three parallel measurements
Method: as §1

[4] = ABTS cation radical scavenging assay; conditions: mean ± SEM of three parallel measurements
Method: as §1

[5] = target: urease (Canavalia ensiformis, UniProt P07374); assay: biochemical
Chain of urease (P07374 whole entry, looked up): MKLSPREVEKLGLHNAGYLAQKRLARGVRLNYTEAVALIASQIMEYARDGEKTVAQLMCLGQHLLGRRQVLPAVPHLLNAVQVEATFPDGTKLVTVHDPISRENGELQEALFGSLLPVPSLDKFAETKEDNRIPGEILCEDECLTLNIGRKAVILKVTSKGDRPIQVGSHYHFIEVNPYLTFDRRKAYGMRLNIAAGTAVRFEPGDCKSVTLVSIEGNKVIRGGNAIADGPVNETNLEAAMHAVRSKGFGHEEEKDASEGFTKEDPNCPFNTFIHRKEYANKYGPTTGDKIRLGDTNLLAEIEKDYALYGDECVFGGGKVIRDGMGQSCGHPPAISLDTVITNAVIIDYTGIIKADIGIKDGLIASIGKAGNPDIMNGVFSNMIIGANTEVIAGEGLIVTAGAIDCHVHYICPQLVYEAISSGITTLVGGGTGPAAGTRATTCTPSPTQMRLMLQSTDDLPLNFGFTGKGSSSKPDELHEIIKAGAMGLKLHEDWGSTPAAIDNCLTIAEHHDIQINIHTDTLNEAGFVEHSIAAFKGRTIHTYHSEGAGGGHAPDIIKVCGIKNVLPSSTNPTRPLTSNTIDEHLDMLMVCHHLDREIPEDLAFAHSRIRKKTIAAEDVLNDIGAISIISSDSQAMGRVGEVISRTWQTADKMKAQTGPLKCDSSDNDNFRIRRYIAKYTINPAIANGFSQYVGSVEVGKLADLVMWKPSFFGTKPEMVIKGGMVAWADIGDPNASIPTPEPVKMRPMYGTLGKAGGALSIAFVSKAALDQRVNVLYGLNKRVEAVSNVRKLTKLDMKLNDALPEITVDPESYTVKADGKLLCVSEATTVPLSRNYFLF

[6] = target: tyrosinase; assay type: biochemical; conditions: mean ± SEM of three parallel measurements
[7] = target: T1, Acetylcholinesterase (AChE) (Electrophorus electricus, UniProt O42275); assay: biochemical; conditions: for IC50: mean ± SEM of three parallel measurements
T1 construct: Acetylcholinesterase (AChE) from electric eel; from tissue; host or cells: electric eel
T1 sequence (O42275 24-633): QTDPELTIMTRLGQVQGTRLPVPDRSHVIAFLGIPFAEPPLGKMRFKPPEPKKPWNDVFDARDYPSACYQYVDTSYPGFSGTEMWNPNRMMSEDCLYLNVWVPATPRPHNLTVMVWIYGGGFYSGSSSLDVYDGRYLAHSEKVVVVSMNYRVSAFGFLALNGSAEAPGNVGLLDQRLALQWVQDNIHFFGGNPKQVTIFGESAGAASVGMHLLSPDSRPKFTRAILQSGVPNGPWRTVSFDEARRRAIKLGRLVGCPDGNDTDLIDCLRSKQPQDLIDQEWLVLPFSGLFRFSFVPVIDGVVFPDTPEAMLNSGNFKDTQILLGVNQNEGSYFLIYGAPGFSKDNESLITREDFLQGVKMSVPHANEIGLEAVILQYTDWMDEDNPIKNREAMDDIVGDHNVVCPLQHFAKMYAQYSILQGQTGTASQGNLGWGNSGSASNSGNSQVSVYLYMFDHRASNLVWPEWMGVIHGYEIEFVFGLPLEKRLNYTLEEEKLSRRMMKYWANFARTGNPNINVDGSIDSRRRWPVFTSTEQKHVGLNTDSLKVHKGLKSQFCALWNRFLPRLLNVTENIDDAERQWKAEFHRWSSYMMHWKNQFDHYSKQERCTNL
Method: (§2) Anticholinesterase activity of all was performed according to the Ellman’s method using a 96-well microplate reader. Acetylcholinesterase (AChE) from electric eel and butyrylcholinesterase (BChE) from horse serum were used. Acetylthiocholine iodide and butyrylthiocholine chloride were utilized as substrates. DTNB (5,50-dithiobis(2-nitrobenzoic) acid was used as a coloring agent to measure the anticholinesterase activity.[43] Measurements were obtained in triplicate.

[8] = target: T2, butyrylcholinesterase (BChE) (Equus caballus, UniProt P81908); assay: biochemical; conditions: for IC50: mean ± SEM of three parallel measurements
T2 construct: butyrylcholinesterase (BChE) from horse serum; from tissue; host or cells: horse serum
T2 sequence (P81908 whole entry): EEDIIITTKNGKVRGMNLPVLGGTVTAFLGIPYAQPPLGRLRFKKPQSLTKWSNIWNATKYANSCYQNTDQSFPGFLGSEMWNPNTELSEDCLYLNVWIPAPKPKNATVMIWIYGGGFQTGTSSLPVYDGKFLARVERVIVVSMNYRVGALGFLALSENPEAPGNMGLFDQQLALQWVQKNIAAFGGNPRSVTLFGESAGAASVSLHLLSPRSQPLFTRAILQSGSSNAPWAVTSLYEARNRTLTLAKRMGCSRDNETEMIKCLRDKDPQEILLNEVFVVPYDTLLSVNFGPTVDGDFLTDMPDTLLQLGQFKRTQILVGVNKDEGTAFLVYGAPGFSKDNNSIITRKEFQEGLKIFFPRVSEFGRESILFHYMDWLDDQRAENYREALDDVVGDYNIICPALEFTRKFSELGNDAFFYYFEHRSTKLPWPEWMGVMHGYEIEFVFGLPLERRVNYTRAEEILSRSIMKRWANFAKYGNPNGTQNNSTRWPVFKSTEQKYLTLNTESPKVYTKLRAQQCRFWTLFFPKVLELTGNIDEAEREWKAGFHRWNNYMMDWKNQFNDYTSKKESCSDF
Method: as §2

[9] = urease activity IC50, mean ± SEM of three parallel measurements
[10] = Selectivity index: IC50 for BChE/IC50 for AChE
[11] = Selectivity index: IC50 for AChE/IC50 for BChE

Compound	CUPRAC assay A0.5 [1]	IC50 [2]	IC50 [3]	IC50 [4]	IC50 [5, 9]	IC50 [6]	SI for AChE [7, 10]	IC50 [7]	SI for BChE [8, 11]	IC50 [8]	SI for AChE [7]	SI for BChE [8]	IC50 ([5]; mean ± SEM of three parallel measurements, read-out: urease activity IC50)
Cc1cc(C(C)(C)C)c(O)c(C(C)(C)C)c1 [BHT, butylated hydroxytoluene, reference compound]	3.80 ± 0.02 µM	55 ± 0.99 µM	2.34 ± 0.09 µM	2.91 ± 0.55 µM	–	–	–	–	–	–	–	–	–
S=C(Nc1ccccc1)NN1CCOCC1 [Compound 1, 1-Morpholino-3-phenylthiyourea]	45.18 ± 0.01 µM	253.4 ± 0.6 µM	79.37 ± 0.38 µM	48.9 ± 0.78 µM	82.54 ± 0.29 µM	35130 ± 70 µM	0.91	130 ± 0.18 µM	1.10	118.5 ± 0.34 µM	–	–	–
O=C1CSC(=NN2CCOCC2)N1c1ccccc1 [Compound 2, 2-(Morpholinoimino)-3-phenylthiazolidin-4-one]	36.35 ± 0.00 µM	101.9 ± 0.61 µM	40.43 ± 0.11 µM	31.66 ± 0.13 µM	65.4 ± 0.67 µM	30200 ± 610 µM	1.50	44.3 ± 0.75 µM	0.67	66.44 ± 0.41 µM	–	–	–
O=C1C(=Cc2ccccc2)SC(=NN2CCOCC2)N1c1ccccc1 [Compound 3, 5-(Benzylidene)-2-(morpholinoimino)-3-phenylthiazolidine-4-one]	35.89 ± 0.01 µM	52.13 ± 0.29 µM	39.8 ± 0.67 µM	31.59 ± 0.04 µM	56.8 ± 0.15 µM	29400 ± 490 µM	1.42	34.2 ± 0.63 µM	0.70	48.72 ± 0.18 µM	–	–	–
O=C1C(=Cc2ccc(Br)cc2)SC(=NN2CCOCC2)N1c1ccccc1 [Compound 4, 5-(4-Bromobenzylidene)-2-(morpholinoimino)-3-phenylthiazolidine-4-one]	21.18 ± 0.00 µM	40.2 ± 0.77 µM	34.7 ± 0.15 µM	23.7 ± 0.66 µM	56.11 ± 0.22 µM	28400 ± 900 µM	1.43	27.7 ± 0.51 µM	0.70	39.6 ± 0.74 µM	–	–	–
O=C1C(=Cc2ccc(O)cc2)SC(=NN2CCOCC2)N1c1ccccc1 [Compound 5, 5-(4-Hydroxybenzaldehyde)-2-(morpholinoimino)-3 phenylthiazolidine-4-one]	24.48 ± 0.02 µM	42.8 ± 0.53 µM	36.2 ± 0.46 µM	28.74 ± 0.19 µM	55.6 ± 0.81 µM	28000 ± 350 µM	1.38	27 ± 0.48 µM	0.73	37.1 ± 0.57 µM	–	–	–
COc1ccc(C=C2SC(=NN3CCOCC3)N(c3ccccc3)C2=O)cc1 [Compound 6, 5-(4-(Methoxy)benzylidene)-2-(morpholinoimino)-3-phenylthiazolidin-4-one]	32.68 ± 0.01 µM	43.46 ± 0.14 µM	37.07 ± 0.22 µM	30.6 ± 0.05 µM	50.78 ± 0.08 µM	27990 ± 170 µM	1.27	29 ± 0.64 µM	0.79	36.81 ± 0.19 µM	–	–	–
COc1ccc(C=C2SC(=NN3CCOCC3)N(c3ccccc3)C2=O)cc1OC [Compound 7, 5-(3,4-Dimethoxy-benzylidene)-2-(morpholinoimino)-3-phenylthiazolidin-4-one]	34.50 ± 0.01 µM	43.91 ± 0.29 µM	38.24 ± 0.13 µM	31.55 ± 0.22 µM	54.3 ± 0.62 µM	27720 ± 240 µM	1.34	30.4 ± 0.47 µM	0.75	40.88 ± 0.16 µM	–	–	–
COc1cc(C=C2SC(=NN3CCOCC3)N(c3ccccc3)C2=O)cc(OC)c1OC [Compound 8, 5-(3,4,5-(Trimethoxy)benzylidene)-2-(morpholinoimino)-3-phenylthiazolidin-4-one]	35.13 ± 0.03 µM	44.06 ± 0.21 µM	36.5 ± 0.39 µM	32.95 ± 0.28 µM	53.4 ± 0.64 µM	25700 ± 390 µM	1.41	33.61 ± 0.33 µM	0.71	47.3 ± 0.77 µM	–	–	–
O=C1C(=Cc2ccc([N+](=O)[O-])cc2)SC(=NN2CCOCC2)N1c1ccccc1 [Compound 9, 5-(4-Nitrobenzylidene)-2-(morpholinoimino)-3-phenylthiazolidin-4-one]	21.87 ± 0.01 µM	32.3 ± 0.55 µM	30.44 ± 0.17 µM	25.2 ± 0.37 µM	51.7 ± 0.12 µM	25420 ± 120 µM	1.35	29.8 ± 0.81 µM	0.74	40.19 ± 0.19 µM	–	–	–
CN(C)c1ccc(C=C2SC(=NN3CCOCC3)N(c3ccccc3)C2=O)cc1 [Compound 10]	28.65 ± 0.00 µM	37.43 ± 0.29 µM	34.23 ± 0.2 µM	30.1 ± 0.69 µM	49.3 ± 0.55 µM	25000 ± 670 µM	1.42	26.48 ± 0.25 µM	0.71	37.53 ± 0.2 µM	–	–	–
O=C1C(=Cc2ccc(N(CCCl)CCCl)cc2)SC(=NN2CCOCC2)N1c1ccccc1 [Compound 11]	11.82 ± 0.00 µM	24.6 ± 0.8 µM	11.9 ± 1.3 µM	23.2 ± 0.34 µM	31.5 ± 0.49 µM	23400 ± 500 µM	–	21.45 ± 0.06 µM	–	32.8 ± 0.48 µM	1.53	0.66	–
O=C1C(=Cc2ccc(N3CCCC3)cc2)SC(=NN2CCOCC2)N1c1ccccc1 [Compound 12, 2-(Morpholinoimino)-3-phenyl-5-(4-(pyrrolidin-1-yl)benzylidene)thiazolidine-4-one]	20.77 ± 0.03 µM	26.1 ± 0.44 µM	16.2 ± 0.66 µM	24.7 ± 0.25 µM	24.2 µM and 23.6 µM	24800 ± 770 µM	1.40	17.4 ± 0.22 µM	0.71	24.4 ± 0.51 µM	–	–	–
O=C1C(=Cc2ccc(N3CCCCC3)cc2)SC(=NN2CCOCC2)N1c1ccccc1 [Compound 13, 2-(Morpholinoimino)-3-phenyl-5-(4-(piperidin-1-yl)benzylidene)thiazolidine-4-one]	23.66 ± 0.02 µM	29 ± 0.29 µM	20.2 ± 0.14 µM	27.16 ± 0.06 µM	30.3 ± 0.95 µM	26200 ± 1110 µM	1.61	20 ± 0.37 µM	0.62	32.21 ± 0.11 µM	–	–	–
O=C1C(=Cc2ccc(N3CCOCC3)cc2)SC(=NN2CCOCC2)N1c1ccccc1 [Compound 14, 2-(Morfolinoimino)-3-phenyl-5-(4-(morpholin-1-yl)benzylidene)thiazolidine-4-one]	27.43 ± 0.00 µM	33.86 ± 0.11 µM	26.31 ± 0.03 µM	30.3 ± 0.36 µM	26.7 ± 0.52 µM	8100 ± 220 µM	1.34	19.2 ± 0.61 µM	0.75	25.7 ± 1.05 µM	–	–	–
NC(N)=S [thiourea, reference compound]	–	–	–	–	–	–	–	–	–	–	–	–	24.2 ± 0.3 µM
Cc1c(C)c2c(c(C)c1O)CC[C@@](C)(CCC[C@H](C)CCC[C@H](C)CCCC(C)C)O2 [α-TOC, reference compound]	40.48 ± 0.02 µM	12.26 ± 0.07 µM	4.5 ± 0.09 µM	4.87 ± 0.45 µM	–	–	–	–	–	–	–	–	–
